Test results taken from US12692261B2, “Substituted heterocyclic compounds and therapeutic uses thereof” (Bayer Aktiengesellschaft, priority 2020, dated 2026).

Columns and labels:
full-length human CSNK1D = target: T1, full-length human CSNK1D (Homo sapiens, UniProt P48730); assay: CSNK1D Assay (ADP-Glo, 1 μM ATP); format: biochemical; conditions: Table 3, read-out: CSNK1D IC50 [mol/l] (median)
T1 construct: N-terminal Glutathion-S-Transferase (GST) and full-length human CSNK1D; purchased Life Technologies PV3665; host or cells: baculovirus infected insect cells
T1 sequence (P48730 whole entry): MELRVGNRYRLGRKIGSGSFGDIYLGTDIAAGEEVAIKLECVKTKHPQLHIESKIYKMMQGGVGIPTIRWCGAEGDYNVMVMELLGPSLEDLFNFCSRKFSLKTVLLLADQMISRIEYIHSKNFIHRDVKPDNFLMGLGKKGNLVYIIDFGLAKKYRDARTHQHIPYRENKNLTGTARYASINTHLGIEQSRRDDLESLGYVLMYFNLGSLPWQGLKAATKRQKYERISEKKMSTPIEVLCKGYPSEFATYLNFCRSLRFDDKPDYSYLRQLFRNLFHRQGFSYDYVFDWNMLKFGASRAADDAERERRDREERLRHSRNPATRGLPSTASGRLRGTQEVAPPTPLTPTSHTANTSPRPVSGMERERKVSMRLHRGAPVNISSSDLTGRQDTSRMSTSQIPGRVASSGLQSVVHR
Method: CSNK1D-inhibitory activity of compounds of the present invention in presence of 1 μM adenosine-tri-phosphate (ATP) was quantified employing the CSNK1 D assay as described in the following paragraphs. In essence, the enzyme activity is measured by quantification of the adenosine-di-phosphate (ADP), which is generated as a co-product of the enzyme reaction, via the “ADP-Glo™ Kinase Assay” kit from the company Promega. This detection system works as follows: In a first step the ATP not consumed in the kinase reaction is quantitatively converted to cAMP employing an adenylate cyclase (“ADP-Glo-reagent”), then the adenylate cyclase is stopped and the ADP generated in the kinase reaction converted to ATP which generates in a luciferase-based reaction a glow-luminescence signal (“Kinase Detection Reagent”).
Recombinant fusion protein of N-terminal Glutathion-S-Transferase (GST) and full-length human CSNK1D, expressed by baculovirus infected insect cells and purified via Glutathion affinity chromatography, was purchased from Life Technologies (product no. PV3665) and used as enzyme. As substrate for the kinase reaction the biotinylated peptide Btn-Ahx-[…] (C-terminus in amide form) was used which can be purchased e.g. from the company Biosyntan (Berlin-Buch, Germany).
For the assay 50 nl of a 100 fold concentrated solution of the test compound in DMSO was pipetted into a white 1536-well microtiter plate (Greiner Bio-One, Frickenhausen, Germany), 2 μL of a solution of CSNK1D in aqueous assay buffer [50 mM HEPES pH 7.5, 10% (v/v) glycerol, 10 mM MgCl2, 50 mM NaCl, 1 mM dithiothreitol, 0.01% (w/v) bovine serum albumin, 0.01% (v/v) Triton X-100] were added and the mixture was incubated for 15 min at 22° C. to allow pre-binding of the test compounds to the enzyme before the start of the kinase reaction. […] The concentration of CSNK1D was adjusted depending of the activity of the enzyme lot and was chosen appropriate to have the assay in the linear range, a typical concentration is about 0.5 ng/μL. The reaction was stopped by the addition of 2.5 μL of “ADP-Glo-reagent” (1:1.5 fold diluted with water) and the resulting mixture was incubated at 22° C. for 1 h to convert the ATP not consumed in the kinase reaction completely […]. Subsequently 2.5 μL of the “kinase detection reagent” (1.2 fold more concentrated than recommended by the producer) were added, the resulting mixture was incubated at 22° C. for 1 h and then the luminescence measured with a suitable measurement instrument (e.g. Viewlux™ from Perkin-Elmer). The amount of emitted light was taken as a measure for the amount of ADP generated and thereby for the activity of the CSNK1D.

[1] = target: T2, full-length human CSNK1A1 (Homo sapiens, UniProt P48729); assay: CSNK1A1 High ATP Assay (ADP-Glo, 1 mM ATP); format: biochemical; conditions: Table 3, read-out: CSNK1A1 high ATP assay IC50 [mol/l] (median);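 note: 30 min kinase reaction at 22 °C with 100 µM peptide substrate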
T2 construct: N-terminal Glutathion-S-Transferase (GST) and full-length human CSNK1A1; purchased Life Technologies PV4174; host or cells: baculovirus infected insect cells
T2 sequence (P48729 whole entry): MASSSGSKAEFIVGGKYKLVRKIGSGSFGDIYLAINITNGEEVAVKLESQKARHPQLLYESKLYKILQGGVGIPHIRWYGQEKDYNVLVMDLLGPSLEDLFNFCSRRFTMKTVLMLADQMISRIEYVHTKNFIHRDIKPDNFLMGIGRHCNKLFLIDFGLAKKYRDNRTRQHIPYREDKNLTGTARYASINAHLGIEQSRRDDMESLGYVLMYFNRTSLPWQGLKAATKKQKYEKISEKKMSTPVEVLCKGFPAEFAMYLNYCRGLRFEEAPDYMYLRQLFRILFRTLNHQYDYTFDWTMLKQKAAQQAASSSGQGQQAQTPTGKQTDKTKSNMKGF
Method: CSNK1A1-inhibitory activity of compounds of the present invention in presence of 1 mM adenosine-tri-phosphate (ATP) was quantified employing the CSNK1A1-high-ATP-assay as described in the following paragraphs. In essence, the enzyme activity is measured by quantification of the adenosine-di-phosphate (ADP), which is generated as a co-product of the enzyme reaction, via the “ADP-Glo™ Kinase Assay” kit from the company Promega. This detection system works as follows: In a first step the ATP not consumed in the kinase reaction is quantitatively converted to cAMP employing an adenylate cyclase (“ADP-Glo-reagent”), then the adenylate cyclase is stopped and the ADP generated in the kinase reaction converted to ATP which generates in a luciferase-based reaction a glow-luminescence signal (“Kinase Detection Reagent”).
Recombinant fusion protein of N-terminal Glutathion-S-Transferase (GST) and full-length human CSNK1A1, expressed by baculovirus infected insect cells and purified via Glutathion affinity chromatography, was purchased from Life Technologies (product no. PV4174) and used as enzyme. As substrate for the kinase reaction the biotinylated peptide biotin-Ahx-KRRRAL-pS-VASLPGL (C-terminus in amide form) was used which can be purchased e.g. from the company Biosyntan (Berlin-Buch, Germany).
For the assay 50 nl of a 100 fold concentrated solution of the test compound in DMSO was pipetted into a white low volume 384-well microtiter plate (Greiner Bio-One, Frickenhausen, Germany), 2 μL of a solution of CSNK1A1 in aqueous assay buffer [50 mM HEPES pH 7.5, 10% (v/v) glycerol, 10 mM MgCl2, 50 mM NaCl, 1 mM dithiothreitol, 0.01% (w/v) bovine serum albumin, 0.01% (v/v) Triton X-100] were added and the mixture was incubated for 15 min at 22° C. to allow pre-binding of the test compounds to the enzyme before the start of the kinase reaction. […] The concentration of CSNK1A1 was adjusted depending of the activity of the enzyme lot and was chosen appropriate to have the assay in the linear range, a typical concentration is about 0.4 ng/μL. The reaction was stopped by the addition of 2.5 μL of “ADP-Glo-reagent” (1:1.5 fold diluted with water) and the resulting mixture was incubated at 22° C. for 1 h to convert the ATP not consumed in the kinase reaction completely […]. Subsequently 2.5 μL of the “kinase detection reagent” (1.2 fold more concentrated than recommended by the producer) were added, the resulting mixture was incubated at 22° C. for 1 h and then the luminescence measured with a suitable measurement instrument (e.g. Viewlux™ from Perkin-Elmer). The amount of emitted light was taken as a measure for the amount of ADP generated and thereby for the activity of the CSNK1A1.

SMILES	IC50 (full-length human CSNK1D) [nM]	IC50 [1] [nM]
O=C(Nc1cc(-c2[nH]c3cncnc3c2-c2ccccn2)ccn1)C(CC(F)F)c1ccc(F)cc1 (racemic) [Example 13, 4,4-difluoro-2-(4-fluorophenyl)-N-{4-[7-(pyridin-2-yl)-5H-pyrrolo[3,2-d]pyrimidin-6-yl]pyridin-2-yl}butanamide]	12.3	240
O=C(Nc1cc(-c2[nH]c3c(C4CCCO4)cc(F)nc3c2-c2ccccn2)ccn1)C(CC(F)F)c1ccc(F)cc1 (single isomer, unassigned) [Example 117, (2R or S)-4,4-difluoro-N-(4-{5-fluoro-7-[(2R or S)-oxolan-2-yl]-3-(pyridin-2-yl)-1H-pyrrolo[3,2-b]pyridin-2-yl}pyridin-2-yl)-2-(4-fluorophenyl)butanamide]	28	3570
O=C(Nc1cc(-c2[nH]c3cc(F)cnc3c2-c2ccccn2)ccn1)C(CC(F)F)c1ccc(F)cc1 (racemic) [Example 16, 4,4-difluoro-2-(4-fluorophenyl)-N-{4-[6-fluoro-3-(pyridin-2-yl)-1H-pyrrolo[3,2-b]pyridin-2-yl]pyridin-2-yl}butanamide]	4.57	21.9
COc1cc(F)nc2c(-c3ccccn3)c(-c3ccnc(NC(=O)C(CC(F)F)c4ccc(F)cc4)c3)[nH]c12 (single isomer, unassigned; (+)) [Example 40, (+)-4,4-difluoro-N-{4-[5-fluoro-7-methoxy-3-(pyridin-2-yl)-1H-pyrrolo[3,2-b]pyridin-2-yl]pyridin-2-yl}-2-(4-fluorophenyl)butanamide]	5.57	3.69
Cc1cnc2c(-c3ccccn3)c(-c3ccnc(NC(=O)C(CC(F)F)c4ccc(F)cc4)c3)[nH]c2c1 (single isomer, unassigned) [Example 9, 4,4-difluoro-2-(4-fluorophenyl)-N-{4-[6-methyl-3-(pyridin-2-yl)-1H-pyrrolo[3,2-b]pyridin-2-yl]pyridin-2-yl}butanamide]	32.8	945
O=C(Nc1cc(-c2[nH]c3c(OCC(F)F)cc(F)nc3c2-c2ccccn2)ccn1)C(CC(F)F)c1ccc(F)cc1 (single isomer, unassigned) [Example 29, (2R or S)—N-{4-[7-(2,2-difluoroethoxy)-5-fluoro-3-(pyridin-2-yl)-1H-pyrrolo[3,2-b]pyridin-2-yl]pyridin-2-yl}-4,4-difluoro-2-(4-fluorophenyl)butanamide]	2.32	3.31
Cc1cc2[nH]c(-c3ccnc(NC(=O)C(CC(F)F)c4ccc(F)cc4)c3)c(-c3ccccn3)c2nc1F (single isomer, unassigned) [Example 35, 4,4-difluoro-N-{4-[5-fluoro-6-methyl-3-(pyridin-2-yl)-1H-pyrrolo[3,2-b]pyridin-2-yl]pyridin-2-yl}-2-(4-fluorophenyl)butanamide]	3.7	2.69
O=C(Nc1cc(-c2[nH]c3cc(F)cnc3c2-c2ccccc2)ccn1)C(CC(F)F)c1ccc(F)cc1 (racemic) [Example 19, 4,4-difluoro-2-(4-fluorophenyl)-N-[4-(6-fluoro-3-phenyl-1H-pyrrolo[3,2-b]pyridin-2-yl)pyridin-2-yl]butanamide]	6.92	602
O=C(Nc1cc(-c2[nH]c3c(OC4CC4)cc(F)nc3c2-c2ccccn2)ccn1)C(CC(F)F)c1ccc(F)cc1 (racemic) [Example 42, (rac)-N-{4-[7-(cyclopropyloxy)-5-fluoro-3-(pyridin-2-yl)-1H-pyrrolo[3,2-b]pyridin-2-yl]pyridin-2-yl}-4,4-difluoro-2-(4-fluorophenyl)butanamide]	14.4	8.22
CC(C)(O)c1cc(F)nc2c(-c3ccccn3)c(-c3ccnc(NC(=O)C(CC(F)F)c4ccc(F)cc4)c3)[nH]c12 (single isomer, unassigned) [Example 100, (2R or S)-4,4-difluoro-N-{4-[5-fluoro-7-(2-hydroxypropan-2-yl)-3-(pyridin-2-yl)-1H-pyrrolo[3,2-b]pyridin-2-yl]pyridin-2-yl}-2-(4-fluorophenyl)butanamide]	46.3	33.6
Cc1ccc2[nH]c(-c3ccnc(NC(=O)C(CC(F)F)c4ccc(F)cc4)c3)c(-c3ccccn3)c2n1 (racemic) [Example 4, 4,4-difluoro-2-(4-fluorophenyl)-N-{4-[5-methyl-3-(pyridin-2-yl)-1H-pyrrolo[3,2-b]pyridin-2-yl]pyridin-2-yl}butanamide]	9.45	158
O=C(Nc1cc(-c2[nH]c3c(OCC(F)F)cc(F)nc3c2-c2ccccn2)ccn1)C(CC(F)F)c1ccc(F)cc1 (single isomer, unassigned) [Example 30, (2R or S)—N-{4-[7-(2,2-difluoroethoxy)-5-fluoro-3-(pyridin-2-yl)-1H-pyrrolo[3,2-b]pyridin-2-yl]pyridin-2-yl}-4,4-difluoro-2-(4-fluorophenyl)butanamide]	14.7	8.84
O=C(Nc1cc(-c2[nH]c3c(OC[C@H]4COCCO4)cc(F)nc3c2-c2ccccn2)ccn1)C(CC(F)F)c1ccc(F)cc1 (mixture of isomers) [Example 50, (2RS)—N-{4-[7-{[(2R)-1,4-dioxan-2-yl]methoxy}-5-fluoro-3-(pyridin-2-yl)-1H-pyrrolo[3,2-b]pyridin-2-yl]pyridin-2-yl}-4,4-difluoro-2-(4-fluorophenyl)butanamide]	9.03	9.34
O=C(Nc1cc(-c2[nH]c3c(OC4CC4)cc(F)nc3c2-c2ccccn2)ccn1)C(CC(F)F)c1ccc(F)cc1 (centres unmarked) [Example 45]	40.4	22.3
O=C(Nc1cc(-c2[nH]c3cncnc3c2-c2ccccn2)ccn1)C(CC(F)F)c1ccc(F)cc1 (single isomer, unassigned; (+)) [Example 15, (+)-4,4-difluoro-2-(4-fluorophenyl)-N-{4-[7-(pyridin-2-yl)-5H-pyrrolo[3,2-d]pyrimidin-6-yl]pyridin-2-yl}butanamide]	3.06	30.9
O=C(Nc1cc(-c2[nH]c3nccnc3c2-c2ccccn2)ccn1)C(CC(F)(F)F)c1ccc(F)cc1 (single isomer, unassigned) [Example 121, (2R or S)-4,4,4-trifluoro-2-(4-fluorophenyl)-N-{4-[7-(pyridin-2-yl)-5H-pyrrolo[2,3-b]pyrazin-6-yl]pyridin-2-yl}butanamide]	62.9	946
